Data: patent US20250066339A1, “HETEROCYCLE-SUBSTITUTED AROMATIC COMPOUND, METHOD FOR PREPARING SAME, HERBICIDAL COMPOSITION, AND USE THEREOF” (QINGDAO KINGAGROOT CHEMICAL COMPOUND CO., LTD., priority 2022, published 2025)

Key:
Assay in all cases: Post-emergence test on weeds
Assay type in all cases: in vivo
Set-up in all cases: key: Level 10: completely dead; Level 9: growth control rate greater than or equal to 90% and less than 100%; Level 8: growth control rate greater than or equal to 80% and less than 90%; Level 7: growth control rate greater than or equal to 70% and less than 80%; Level 6: growth control rate greater than or equal to 60% and less than 70%; Level 5: growth control rate greater than or equal to 50% and less than 60%; Level 4: growth control rate greater than or equal to 40% and less than 50%; Level 3: growth control rate greater than or equal to 30% and less than 40%; Level 2: growth control rate greater than or equal to 20% and less than 30%; Level 1: growth control rate less than 20%; Level 0: no effect
Conditions in all cases: 3 weeks after application, fresh weight control rate
[1] = test system: Setaria viridis
Text: (§1) The activity level criteria for plant damage (i.e., growth control rate) are as follows: • Level 10: completely dead; • Level 9: growth control rate greater than or equal to 90% and less than 100%; • Level 8: growth control rate greater than or equal to 80% and less than 90%; • Level 7: growth control rate greater than or equal to 70% and less than 80%; • Level 6: growth control rate greater than or equal to 60% and less than 70%; • Level 5: growth control rate greater than or equal to 50% and less than 60%; • Level 4: growth control rate greater than or equal to 40% and less than 50%; • Level 3: growth control rate greater than or equal to 30% and less than 40%; • Level 2: growth control rate greater than or equal to 20% and less than 30%; • Level 1: growth control rate less than 20%; • Level 0: no effect.
(§2) The above growth control rates are fresh weight control rates.
(§3) Monocotyledonous and dicotyledonous weed seeds (Descurainia sophia, Capsella bursa-pastoris, Abutilon theophrasti, Galium spurium, Stellaria media, Lithospermum arvense, Rorippa indica, Alopecurus aequalis, Alopecurus japonicus, Eleusine indica, Beckmannia syzigachne, Sclerochloa dura, Erigeron canadensis, Phleum paniculatum, Veronica polita, Bromus japonicus, Aegilops tauschii, Phalaris arundinacea, Amaranthus retroflexus, Chenopodium, Commelina communis, Cichorium endivia, Convolvulus arvensis, Cirsium arvense, Solanum nigrum, Acalypha australis, Digitaria sanguinalis, Echinochloa crus-galli, Setaria viridis, Setaria pumila, Leptochloa chinensis, Monochoria vaginalis, Sagittaria trifolia, Schoenoplectiella juncoides, Cyperus rotundus, Cyperus iria, Cyperus difformis, Fimbristylis, Portulaca oleracea, Xanthium sibiricum, Ipomoea nil, Eschenbachia japonica, etc.) and major crop seeds (wheat, maize, paddy rice, soybean, cotton, oilseed rape, millet, sorghum, potato, sesame, castor plant, etc.) were placed in plastic pots filled with soil and then covered with 0.5-2 cm of soil to allow them to grow in a favorable greenhouse environment. Two weeks after sowing, the test plants were treated at the stage of 2-3 leaves. The test compounds of the present invention were individually dissolved with acetone, then added with Tween® 80, with 1.5 L/ha of methyl oleate emulsifiable concentrate as a synergist, diluted into solutions of certain concentrations using certain amount of water, and sprayed to the plants using a spray tower. After drug application, the experimental results on weeds were collected after 3 weeks of cultivation in a greenhouse. The compounds were applied at 500, 250, 125, 60, 15, and 7.5 g a.i./ha in triplicate, and the results were averaged.

[2] = test system: Digitaria sanguinalis
Text: as §1, §2, §3

[3] = test system: Abutilon theophrasti
Text: as §1, §2, §3

[4] = test system: Echinochloa crus-galli
Text: as §1, §2, §3

[5] = test system: Veronica polita
Text: as §1, §2, §3

[6] = test system: Amaranthus retroflexus
Text: as §1, §2, §3

Cc1ccc(/C=N/OC(=O)C2(C)CC(c3cc(-c4ncc(C(F)(F)F)cc4Cl)c(F)cc3Cl)=NO2)s1 (stereo not drawn) [Compound 73]
10: activity level (growth control rate) Setaria viridis ([1]; 60 g a.i./ha) | activity level (growth control rate) Digitaria sanguinalis ([2]; 60 g a.i./ha) | activity level (growth control rate) Abutilon theophrasti ([3]; 60 g a.i./ha) | activity level (growth control rate) Echinochloa crus-galli ([4]; 60 g a.i./ha) | activity level (growth control rate) Veronica polita ([5]; 60 g a.i./ha) | activity level (growth control rate) Amaranthus retroflexus ([6]; 60 g a.i./ha)

CC1(C(=O)ON=C2CCCC2)CC(c2cc(-c3ncc(C(F)(F)F)cc3Cl)c(F)cc2Cl)=NO1 (stereo not drawn) [Compound 74]
10: activity level (growth control rate) Setaria viridis ([1]; 60 g a.i./ha) | activity level (growth control rate) Digitaria sanguinalis ([2]; 60 g a.i./ha) | activity level (growth control rate) Abutilon theophrasti ([3]; 60 g a.i./ha) | activity level (growth control rate) Echinochloa crus-galli ([4]; 60 g a.i./ha) | activity level (growth control rate) Veronica polita ([5]; 60 g a.i./ha) | activity level (growth control rate) Amaranthus retroflexus ([6]; 60 g a.i./ha)

CCOC(=O)CCC1(C)CC(c2cc(-c3ncc(C(F)(F)F)cc3Cl)c(F)cc2Cl)=NO1 (stereo not drawn) [Compound 76]
10: activity level (growth control rate) Setaria viridis ([1]; 15 g a.i./ha) | activity level (growth control rate) Digitaria sanguinalis ([2]; 15 g a.i./ha) | activity level (growth control rate) Abutilon theophrasti ([3]; 15 g a.i./ha) | activity level (growth control rate) Echinochloa crus-galli ([4]; 15 g a.i./ha) | activity level (growth control rate) Veronica polita ([5]; 15 g a.i./ha) | activity level (growth control rate) Amaranthus retroflexus ([6]; 15 g a.i./ha)

CCSC(=O)C1(C)CC(c2cc(-c3ncc(C(F)(F)F)cc3Cl)c(F)cc2Cl)=NO1 (stereo not drawn) [Compound 78]
10: activity level (growth control rate) Setaria viridis ([1]; 15 g a.i./ha) | activity level (growth control rate) Digitaria sanguinalis ([2]; 15 g a.i./ha) | activity level (growth control rate) Abutilon theophrasti ([3]; 15 g a.i./ha) | activity level (growth control rate) Echinochloa crus-galli ([4]; 15 g a.i./ha) | activity level (growth control rate) Veronica polita ([5]; 15 g a.i./ha) | activity level (growth control rate) Amaranthus retroflexus ([6]; 15 g a.i./ha)

CCOC(=O)C1(C)CC(c2cc(-c3ncc(OC)cc3Cl)c(F)cc2Cl)=NO1 (stereo not drawn) [Compound 102]
10: activity level (growth control rate) Setaria viridis ([1]; 60 g a.i./ha) | activity level (growth control rate) Digitaria sanguinalis ([2]; 60 g a.i./ha) | activity level (growth control rate) Abutilon theophrasti ([3]; 60 g a.i./ha) | activity level (growth control rate) Echinochloa crus-galli ([4]; 60 g a.i./ha) | activity level (growth control rate) Veronica polita ([5]; 60 g a.i./ha) | activity level (growth control rate) Amaranthus retroflexus ([6]; 60 g a.i./ha)

C=C(C)c1cnc(-c2cc(C3=NOC(C)(C(=O)OCSC)C3)c(Cl)cc2F)c(Cl)c1 (stereo not drawn) [Compound 104]
10: activity level (growth control rate) Setaria viridis ([1]; 60 g a.i./ha) | activity level (growth control rate) Digitaria sanguinalis ([2]; 60 g a.i./ha) | activity level (growth control rate) Abutilon theophrasti ([3]; 60 g a.i./ha) | activity level (growth control rate) Echinochloa crus-galli ([4]; 60 g a.i./ha) | activity level (growth control rate) Veronica polita ([5]; 60 g a.i./ha) | activity level (growth control rate) Amaranthus retroflexus ([6]; 60 g a.i./ha)

CSCCOC(=O)C1CC(c2cc(-c3ncc(C(F)(F)F)cc3Cl)c(F)cc2Cl)=NO1 (stereo not drawn) [Compound 105]
10: activity level (growth control rate) Setaria viridis ([1]; 60 g a.i./ha) | activity level (growth control rate) Digitaria sanguinalis ([2]; 60 g a.i./ha) | activity level (growth control rate) Abutilon theophrasti ([3]; 60 g a.i./ha) | activity level (growth control rate) Echinochloa crus-galli ([4]; 60 g a.i./ha) | activity level (growth control rate) Veronica polita ([5]; 60 g a.i./ha) | activity level (growth control rate) Amaranthus retroflexus ([6]; 60 g a.i./ha)

C=C(C)c1cnc(-c2cc(C3=NOC(C)(C(=O)ON=C(C)C)C3)c(Cl)cc2F)c(Cl)c1 (stereo not drawn) [Compound 113]
10: activity level (growth control rate) Setaria viridis ([1]; 60 g a.i./ha) | activity level (growth control rate) Digitaria sanguinalis ([2]; 60 g a.i./ha) | activity level (growth control rate) Abutilon theophrasti ([3]; 60 g a.i./ha) | activity level (growth control rate) Echinochloa crus-galli ([4]; 60 g a.i./ha) | activity level (growth control rate) Veronica polita ([5]; 60 g a.i./ha) | activity level (growth control rate) Amaranthus retroflexus ([6]; 60 g a.i./ha)

CC(C)=NOC(=O)C1(C2CC2)CC(c2cc(-c3ncc(C(F)(F)F)cc3Cl)c(F)cc2Cl)=NO1 (stereo not drawn) [Compound 129]
10: activity level (growth control rate) Setaria viridis ([1]; 60 g a.i./ha) | activity level (growth control rate) Digitaria sanguinalis ([2]; 60 g a.i./ha) | activity level (growth control rate) Abutilon theophrasti ([3]; 60 g a.i./ha) | activity level (growth control rate) Echinochloa crus-galli ([4]; 60 g a.i./ha) | activity level (growth control rate) Veronica polita ([5]; 60 g a.i./ha) | activity level (growth control rate) Amaranthus retroflexus ([6]; 60 g a.i./ha)
